From paper PMC4462581 (PLoS ONE, 2015)

Tests used:
[1] = test system: BoNT/A intoxication of mouse ES-MNs (SNAP-25 cleavage); assay type: cell-based
[2] = test system: BoNT/E intoxication of human ES-MNs (SNAP-25 cleavage); assay type: cell-based
[3] = target: BoNT/A LC (Clostridium botulinum, UniProt P0DPI0); experiment: biochemical
[4] = test system: BoNT/A intoxication of human ES-MNs (SNAP-25 cleavage); assay type: cell-based
[5] = test system: BoNT/A intoxication of mouse ES-MNs (SNAP-25 cleavage); assay type: cell-based; remark: listed apart in the source

Chain of BoNT/A LC (P0DPI0 2-448 limits assumed): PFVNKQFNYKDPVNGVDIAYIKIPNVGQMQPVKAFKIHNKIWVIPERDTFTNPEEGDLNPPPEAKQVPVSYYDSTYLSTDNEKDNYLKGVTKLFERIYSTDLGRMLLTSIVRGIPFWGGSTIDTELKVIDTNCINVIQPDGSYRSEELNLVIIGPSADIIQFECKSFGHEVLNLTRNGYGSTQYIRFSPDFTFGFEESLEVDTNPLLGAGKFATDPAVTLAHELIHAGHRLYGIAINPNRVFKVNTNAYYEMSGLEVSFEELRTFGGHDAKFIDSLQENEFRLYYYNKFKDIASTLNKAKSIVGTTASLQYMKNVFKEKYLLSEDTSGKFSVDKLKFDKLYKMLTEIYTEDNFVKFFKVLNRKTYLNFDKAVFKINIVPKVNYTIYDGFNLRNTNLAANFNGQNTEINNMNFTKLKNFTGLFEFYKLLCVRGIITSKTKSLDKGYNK

SMILES	Protection against BoNT/A (SNAP-25 cleavage), library screen outcome [1]	Protection of SNAP-25 against BoNT/E, 30 min post-intoxication [2]	Protection of SNAP-25 against BoNT/E, 60 min post-intoxication [2]	IC50 [3]	Antagonism of BoNT/A mediated SNAP-25 cleavage, 60 min post-intoxication [4]	Protection of SNAP-25 against BoNT/A, pre-intoxication, dose dependence [4]	Protection of SNAP-25 against BoNT/A, western blot [5]
O=C1C(=O)c2ccccc2-c2ccccc21 [9,10-Phenanthrenequinone]	identified as potential BoNT/A intoxication inhibitors	statistically significant protection	statistically significant protection	> 20 µM			
CC1(C)C(=O)N=C2C1=C(O)C(=O)c1ccccc12 [BVT 948]	identified as potential BoNT/A intoxication inhibitors	efficacious		> 20 µM			
N=C(N)c1ccc(OCCCCCOc2ccc(C(=N)N)cc2)cc1 [Pentamidine]	identified as potential BoNT/A intoxication inhibitors	not statistically significant	not statistically significant	> 20 µM	trended toward, but did not reach, statistical significance	qualitatively lower level of SNAP-25 cleavage protection	qualitatively lower level of SNAP-25 cleavage protection
CO/C1=C\C(C)=C\[C@@H](C)[C@@H](O)[C@@H](C)C/C(C)=C/C=C/[C@H](OC)[C@@H]([C@@H](C)[C@@H](O)[C@H](C)[C@@]2(O)C[C@@H](O)[C@H](C)[C@@H](C(C)C)O2)OC1=O [bafilomycin]						dose-dependent protection	
O=C1C(Cl)=C(NCCN2CCOCC2)C(=O)c2ncccc21 [NSC 663284]	identified as potential BoNT/A intoxication inhibitors	statistically significant protection	statistically significant protection	> 20 µM			
